Assay results reported in patent publication US20230263751A1, “Compositions and Methods of Use of beta-hydroxy-beta-methylbutyrate (HMB) and Chemotherapy Agents” (Metabolic Technologies, LLC, priority 2020, published 2023).

Key:
COX-2 = COX-2 expression in EAC cells by Western blotting; assay type: in vivo, Balb/c mice (Mus musculus); settings: COX-2/actin in EAC cells
Protocol: (§1) Apoptotic markers were evaluated by Western blotting. EAC cells were washed with PBS and lysed in RIPA buffer supplemented with 1% protease and 3% phosphatase inhibitors. The proteins were further denatured in Laemmli buffer and equivalent amounts were subjected to SDS-PAGE electrophoresis, followed by electroblotting on PVDF membranes. The membranes were blocked and then incubated with the primary monoclonal antibodies: p53 (Santa Cruz Biotechnology, DO-1; sc-126), Bax (Santa Cruz Biotechnology, B-9; sc-7480) and BcL-xl (Santa Cruz Biotechnology, H-5; sc-8392), and subsequently incubated with peroxidase conjugated secondary antibodies (Dako and Chemicon). Immunodetection was performed using a chemiluminescence determination kit, and β-actin was used as a loading control. Images were obtained with the ChemiDoc MP (Bio Rad) system.
The COX-2 expression in EAC cells was assessed by Western blotting as described in item 2.2.3. Antibodies to COX-2 were purchased from Cell Signaling (#4842)

p53 = test: Western blotting of p53 in EAC cells; assay type: in vivo, Balb/c mice (Mus musculus); settings: p53/actin
Protocol: as §1

[1] = system: tumors injected into the peritoneal cavity; settings: rats; cited from earlier work
C-reactive protein = test: Serum C-reactive protein (Ultra Turbiquest Plus CRP kit); assay type: in vivo, Balb/c mice (Mus musculus); settings: for Serum C-reactive protein levels: mice with EAC, 9 days, Control 1.63, Normal 0.07
Protocol: The determination of C-reactive protein (CRP) in serum was performed by the Ultra Turbiquest Plus® CRP kit, according to the manufacturer instructions.

[2] = Cachexia assessment (food intake, weight loss, muscle and fat mass) of mice with EAC; assay type: in vivo, Balb/c mice (Mus musculus); settings: 9 days; for Average daily food intake: Control 2.17±0.69, Normal 3.30±0.60; for Brown adipose tissue mass / Dry weight soleus muscle / Mesenteric fat mass / Subcutaneous fat mass / Wet weight gastrocnemius muscle / Wet weight soleus muscle: mean ± SD, n=6
Excerpt: To determine average daily food intake, the weight of the feed consumed was divided by the number of animals in each cage. To evaluate the percentage of weight loss, the “initial weight” (before inoculation of the EAC), “final weight” (after 9 days of treatment) and “carcass weight” (final weight−weight of ascitic liquid) were considered according to standardized equation [27].
The soleus and gastrocnemius muscles were quickly removed and weighed on an analytical balance (wet mass). Soleus samples were used to determine the dry weight after 3 days at 60° C., and the gastrocnemius was kept at −80° C. for the determination of cytokines. The wet mass of the gastrocnemius and soleus muscle (mg) was normalized by the length of the tibia (mm) of the mice. Subcutaneous fat deposits, mesentery and brown adipose tissue were also removed and immediately weighed.

EAC cells [3] = test: Survival assessment of mice with EAC (Kaplan and Meier); assay type: in vivo, Balb/c mice (Mus musculus); settings: for Mean survival time: mice with EAC, n=12, observation discontinued after 30 days, Control 16 days
Excerpt: (§2) In addition, after euthanasia, all ascitic fluid was collected to measure volume and weight. Finally, Balb/c mice (n=12) were chosen at random and kept alive to assess the effects of HMB, Doxo and Doxo+HMB on survival time according to Kaplan and Meier (1958); survival assessments were discontinued after 30 days.

IL-6 = IL-6 in gastrocnemius muscle by ELISA; assay type: in vivo, Balb/c mice (Mus musculus); settings: in relation to the Control group
Protocol: (§3) For the determination of cytokines, the gastrocnemius muscle was homogenized in a RIPA buffer supplemented with 1% protease and 3% phosphatase inhibitors, in the proportion 1 mg tissue:10 μl buffer, followed by centrifugation of the homogenate at 12,000 g and 4° C., for 10 minutes. An aliquot of the supernatant was used to determine the cytokines IL-1β and IL-6 by ELISA immunoassay using DuoSet® Kit (R&D System, USA), according to the manufacturer recommendations.

[4] = serum HMB levels; cited from earlier work
EAC cells [5] = test: Tumor growth inhibition and morphological evaluation of mice with EAC; assay type: in vivo, Balb/c mice (Mus musculus); settings: 9 days treatment
Protocol: Female (18 to 23 g weight, 60 days) Balb/c mice (Mus musculus) obtained from controlled reproduction carried out in the sectoral bioterium of the Federal University of Santa Catarina (Brazil), were kept in plastic cages under controlled environmental conditions (12 h light-dark cycle, 25±2° C., relative humidity 60%), receiving commercial feed and water ad libitum.
The moment before the tumor was inoculated, the abdominal circumference was measured. The treatments were administered intraperitoneally for 9 consecutive days. Twenty-four hours after the last treatment, all mice were weighed and their abdominal circumferences measured again. The inhibition (%) of tumour growth was calculated as follow: [(average in waist circumference of the treated group×100)/average in waist circumference of the control group]−100.
as §2

Bax/Bcl-xl = test: Western blotting of Bax and Bcl-xl in EAC cells (Bax/Bcl-xl ratio); assay type: in vivo, Balb/c mice (Mus musculus)
Protocol: as §1, with “EAC cells were washed with PBS and lysed in RIPA buffer supplemented with 1% protease and 3% phosphatase inhibitors.” left out, “control.” for “control. Images were obtained with the ChemiDoc MP (Bio Rad) system.”

EAC cells [6] = test: Assessment of death type in harvested tumor cells (propidium iodide/acridine orange)
Protocol: The mice were divided into 5 groups (n=6): Normal (healthy animals), Control (saline), Doxo (1 mg/kg/day), HMB (617.3 mg calcium HMB/kg/day) and Doxo+HMB (1 mg/kg/day and 617.3 mg/kg/day, respectively). The animals belonging to the Control, Doxo, HMB and Doxo+HMB groups were inoculated with EAC cells (200 μL, 5×10^6 cells) by intraperitoneal injection and treatment of animals was started after 96 hours. The dose of HMB was defined based on the recommendation for adult men of 70 kg, that is, 3 g/day (supplementary form) [21].
Harvested tumor cells (5×10^6) were stained with 1 μL of a solution (1:1) of propidium iodide (100 μg/mL) and acridine orange (100 μg/mL). The samples were read by fluorescence microscopy on the green (excitation at 460 nm and emission at 520 nm) and red (excitation at 492 nm at emission at 620 nm) filters, and the results were expressed as percentage of viable (green), apoptotic (orange) and necrotic (red) cells [24].

IL-1β = IL-1β in gastrocnemius muscle by ELISA; assay type: in vivo, Balb/c mice (Mus musculus)
Protocol: as §3

[7] = EAC cells harvested after 9 days treatment

In the case of `CC(C)(O)CC(=O)O` [HMB, β-hydroxy-β-methylbutyrate], the “Reduction of COX-2 expression compared to controls” value (COX-2) is given as 4%, the “Increase of p53 expression in relation to the Control group” value (p53) is given as 10% and the Improved survival [1] is given as 42%. For the same compound, the “Serum C-reactive protein levels” value (C-reactive protein) was 0.31 mg/L, the “Average daily food intake” value [2] was 2.81 ± 1.05 g/day and the “Brown adipose tissue mass” value [2] was 3.2 ± 0.3 mg/cm mouse length. For the same compound, the “Dry weight soleus muscle” value [2] was 0.1 ± 0.04 mg/mm tibia length, the Mesenteric fat mass [2] was 3.0 ± 0.8 mg/cm mouse length and the Subcutaneous fat mass [2] was 1.9 ± 1.1 mg/cm mouse length. The “Wet weight gastrocnemius muscle” value [2] was 8.9 ± 0.5 mg/mm tibia length, the “Wet weight soleus muscle” value [2] was 0.8 ± 0.2 mg/mm tibia length and the Mean survival time (EAC cells [3]) was 13.5 days. For the same compound, the “Reduction of IL-6” value (IL-6) was 64%.

In the case of `CC(C)(O)CC(=O)O` [free acid form of HMB, β-hydroxy-β-methylbutyric acid], the “Absorption compared with CaHMB” value [4] is listed as “more rapidly absorbed than CaHMB”.

For `COc1cccc2c1C(=O)c1c(O)c3c(c(O)c1C2=O)C[C@@](O)(C(=O)CO)C[C@@H]3O[C@H]1C[C@H](N)[C@H](O)[C@H](C)O1` [Doxo, doxorubicin], the “Increase of p53 expression in relation to the Control group” value (p53) was 20%, the “Serum C-reactive protein levels” value (C-reactive protein) was 2.39 mg/L and the “Increase in C-reactive protein levels compared to controls” value (C-reactive protein; serum) was 47%. For the same compound, the “Inhibition of tumor growth” value (EAC cells [5]; from waist circumference, in relation to the Control group, n=6) was 42%, the “Reduction of body weight variation in relation to the Control group” value (EAC cells [5]; mice with EAC) was 39% and the “Reduction of volume of ascitic liquid in relation to the Control group” value (EAC cells [5]; mice with EAC) was 54%. The “Average daily food intake” value [2] was 2.22 ± 0.63 g/day, the “Attenuation of weight loss in relation to controls” value ([2]; EAC caused 11% body weight loss) was 54% and the “Brown adipose tissue mass” value [2] was 3.6 ± 1.7 mg/cm mouse length. For the same compound, the “Dry weight soleus muscle” value [2] was 0.1 ± 0.01 mg/mm tibia length, the Mesenteric fat mass [2] was 2.5 ± 0.6 mg/cm mouse length and the Subcutaneous fat mass [2] was 2.2 ± 0.3 mg/cm mouse length. The “Wet weight gastrocnemius muscle” value [2] was 11.7 ± 0.2 mg/mm tibia length, the “Wet weight soleus muscle” value [2] was 0.7 ± 0.15 mg/mm tibia length and the Mean survival time (EAC cells [3]) was 26 days. The “Surviving animals at the end of the observation period” value (EAC cells [3]; n=12, 30 days) was 3 animals, the “Reduction of IL-6” value (IL-6) was 43% and the “Increase of Bax/Bcl-xL ratio in relation to the Control” value (Bax/Bcl-xl) was 38%. For the same compound, the Apoptotic cells (EAC cells [6]; [7]) was 4%, the “Necrosis (necrotic cells)” value (EAC cells [6]; [7]) was 36% and the Viable cells (EAC cells [6]; [7]) was 60%. The “Percentage of death induced by each treatment” value (EAC cells [6]; as restated in the discussion) was 36% and the “Reduction of IL-1β content in relation to controls” value (IL-1β) was 6%.
